From article PMC12684298, “The Parkinson's Disease Drug Tolcapone and Analogues are Potent Glycomimetic Lectin Inhibitors of Pseudomonas aeruginosa LecA” (Angewandte Chemie (International Ed. in English), 2025) come the findings set out here.

By inhibition is commonly meant the change of the read-out against control, counted positive when it falls. The term IC50 denotes the concentration at which inhibition is half-maximal. The term Kd denotes the constant that tells how readily two partners part at equilibrium.

Experiment [1] deals with T1, LecA (Pseudomonas aeruginosa, UniProt Q05097).
T1 construct: made in house; host or cells: E. coli BL21 (DE3), plasmid pET25pa11
T1 sequence (Q05097 whole entry): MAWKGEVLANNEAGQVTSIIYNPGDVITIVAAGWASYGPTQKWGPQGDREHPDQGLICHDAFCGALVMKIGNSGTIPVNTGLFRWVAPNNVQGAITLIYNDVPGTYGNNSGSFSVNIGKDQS
The experiment is described as follows: Library screening using the FP competitive binding assay (three concentrations). From the text: Next, we screened a library of catechols from F. Hoffmann‐La Roche, the developer of Tolcapone, in the competitive binding assay to establish a structure–activity relationship. To this end, two sets of compounds with a molecular cut‐off of 500 Da were chosen: a first set of 342 compounds contained derivatives of Tolcapone, while a second set of 3222 compounds comprised catechols covering a larger chemical space. […] Tests were run in a 384‐well‐plate format at three concentrations (first set at 125, 32, and 4 µM, second set at 100, 25, and 3 µM) in presence of 10% DMSO and 250 µM 2‐mercaptoethanol to prevent interference by a potential unspecific reactivity of electron‐rich catechols as established earlier.^[ [30] ^]
The screening followed the same assay by Joachim et al.^[2] as described above. Compounds in DMSO (1 µL with the appropriate concentration) were plated using a robot into black 384-well microtiter plates (Greiner Bio-One, Germany, cat no 781900) by the Roche compound handling facility at four replicates per concentration and compound. A mixture of LecA, sulfo-Cy5-Gal and 2-mercaptoethanol in TBS/Ca (20 mM Tris, 147 mM NaCl, 2.6 mM KCl at pH 7.4 supplemented with 1 mM CaCl2) with DMSO was added at HIPS. Final concentrations in both screening rounds were the following: 5 µM LecA, 250 µM 2-mercaptoethanol, 10 nM sulfo-Cy5-Gal and 10% DMSO. Final concentrations of the 342 compounds of the first screening round were 125 µM, 32 µM and 4 µM. The 3222 compounds of the second screening round were tested at final concentrations of 100 µM, 25 µM and 3 µM. The plate was sealed (EASYseal, Greiner Bio-One, cat no 676001), briefly centrifuged and incubated at room temperature in the dark under shaking conditions. Fluorescence intensities were measured after 1 h and 24 h using a PheraStar FS plate reader (BMG Labtech GmbH, Germany) with spectral filters for excitation at 590 nm and emission at 675 nm and polarization was calculated after blank values of 5 µM LecA in TBS/Ca buffer with 250 µM 2-mercaptoethanol and 10% DMSO were subtracted from the test compounds. The data were analysed using the MARS Data Analysis software. […] All stated values are the average including the standard deviation based on three replicates for 100 µM and four replicates in the case of compounds at 125 µM.

Experiment [2] deals with T1, LecA. The experiment is described as follows: biochemical. The format is binding. How it is done: Therefore, we focused our attention on commercially available nitro‐catechols. Prominent derivatives are inhibitors of the enzyme catechol‐O‐methyltransferase (COMT) and approved drugs for the treatment of Parkinson's disease. Four commercial COMT inhibitors were thus evaluated in a previously reported competitive binding assay based on fluorescence polarisation (FP, Table 1, Figure 1).^[ [32] ^]
The competitive binding assay was performed in analogy to Joachim et al.^[2] 10 µL of a solution containing LecA (40 µM) and sulfo-Cy5-Gal (20 nM, synthesis described in Kuhaudomlarp, Siebs et al.^[5]) in TBS/Ca buffer (20 mM Tris, 147 mM NaCl, 2.6 mM KCl at pH 7.4 supplemented with 1 mM CaCl2) were distributed in into wells of a black 384-well microtiter plate (Greiner Bio-One, Germany, cat no 781900). Then, 10 µL of serial dilutions of compounds (3 mM to 1.5 µM, dilution factor 0.5) in TBS/Ca with 40% DMSO were added in technical triplicates. Final concentrations after mixing were the following: 1.5 mM – 0.73 µM compound, 20 µM LecA, 10 nM sulfo-Cy5-Gal and 20% DMSO. The plate was sealed (EASYseal, Greiner Bio-One, cat no 676001), briefly centrifuged and incubated at room temperature in the dark under shaking conditions. Fluorescence intensity was measured after 1 h and 4 h using a PheraStar FS plate reader (BMG Labtech GmbH, Germany) with spectral filters for excitation at 590 nm and emission at 675 nm and polarization was calculated after blank values of 20 µM LecA in TBS/Ca buffer with 20% DMSO were subtracted from the test compounds. The data were analysed using the four-parameter variable slope model of the MARS Data Analysis software. The top and bottom plateau were assigned based on the control compound methyl α-d-galactoside and the data was reanalysed with these fixed values. If not mentioned otherwise, the experiment was repeated at least three times for each compound and the average and standard deviation are given. In case Triton X-100 was used it was added to the TBS/Ca buffer before the assay.

Experiment [3] concerns the target T1, LecA. The experiment is described as follows: biochemical. The class given is binding. The note with it: ITC. How it is done:
Isothermal titration calorimetry was performed on a MicroCal PEAQ-ITC (Malvern Panalytical) at 25 °C and 750 rpm stirring. The cell was filled with LecA (75 - 111 µM) in TBS/Ca buffer (20 mM Tris, 147 mM NaCl, 2.6 mM KCl at pH 7.4 supplemented with 1 mM CaCl2) with 20% DMSO and titrated with ligand (0.75 mM or 1.5 mM, 19 injections) in the same buffer. Data were analysed using the one binding site model in the MicroCal PEAQ-ITC analysis software (Malvern Panalytical). The first injection of each titration was excluded and the baseline subtracted for the final figures. Three titration per compound were performed and the average as well as standard deviation are given.

[4] abbreviates: read-out: Activity [%] (% inhibition relative to 500 µM pNPGal).
The mark [5] stands for this setting: IC50, extended dose-response analysis, 20% DMSO, no 2-mercaptoethanol, three experiments.
Where [6] appears, read: individual replicate (Repl. 1-3).

Where “and” joins values, the source holds several entries; their conditions need not be identical. Equal entries are not always repeated. Where two headings read alike, the source gives them in different places.

On to `O=C(NC12CC3CC(CC(C3)C1)C2)c1cc(O)c(O)c([N+](=O)[O-])c1` [compound 24], for which, in experiment [1] (setting [4]), the inhibition at 100 µM amounted to 10 ± 3.6%.

In the case of `Cc1ccc(C(=O)c2cc(O)c(O)c(-c3nc(C)no3)c2)cc1` [compound 13], the inhibition at 100 µM in experiment [1] (setting [4]) is 57.7 ± 3.8%. This compound also gave an IC50 in experiment [2] (setting [5]) of 346 ± 36 µM.

Turning to `Cc1noc(-c2cc(O)c(O)c([N+](=O)[O-])c2)n1` [compound 16], the inhibition at 100 µM in experiment [1] (setting [4]) was 9.4 ± 7.5%.

As to `Nc1cc(Cl)ccc1-c1nc(-c2cc(O)c(O)c([N+](=O)[O-])c2)cs1` [compound 17], in experiment [1] (setting [4]), the inhibition at 100 µM worked out at 15.2 ± 8.7%.

For `Cc1ccc(C(=O)c2ccc(O)c(O)c2)cc1` [compound 6], in experiment [1] (setting [4]), the inhibition at 100 µM turned out to be 13.8 ± 3.9%.

As for `CCOC(=O)c1cc(O)c(O)c([N+](=O)[O-])c1` [compound 20], the inhibition at 100 µM in experiment [1] (setting [4]) is 14 ± 4.2%.

On to `Cc1ccc(C(=O)c2cc(O)c(O)c(C(N)=O)c2)cc1` [compound 11], for which the inhibition at 100 µM in experiment [1] (setting [4]) was found to be 21.8 ± 3.4%.

Regarding `O=C(NCc1ccccc1)c1cc(O)c(O)c([N+](=O)[O-])c1` [compound 23], in experiment [1] (setting [4]), the inhibition at 100 µM is 26.6 ± 4.2%.

Regarding `O=C(c1cc(O)c(O)c([N+](=O)[O-])c1)c1ncc[nH]1` [compound 26], the inhibition at 100 µM in experiment [1] (setting [4]) amounted to 16.8 ± 3.8%.

Turning to `O=C(c1ccccc1)c1cc(O)c(O)c([N+](=O)[O-])c1` [compound 29], in experiment [1] (setting [4]), the inhibition at 100 µM amounted to 41.8 ± 7.3%.

For the compound `Cn1nc(-c2cc(O)c(O)c([N+](=O)[O-])c2)cc1O` [compound 18], the inhibition at 100 µM in experiment [1] (setting [4]) turned out to be 1.9 ± 3.3%.

With `CC(=O)c1cc(O)c(O)c([N+](=O)[O-])c1` [compound 19], the inhibition at 100 µM in experiment [1] (setting [4]) was 31.5 ± 3.8%.

As to `Cc1ccc(C(=O)c2cc(O)c(O)c(-c3nnn[nH]3)c2)cc1` [compound 14], the inhibition at 100 µM in experiment [1] (setting [4]) turned out to be 0.8 ± 8.7%.

As to `O=C(c1cc(O)c(O)c([N+](=O)[O-])c1)c1nc2ccccc2[nH]1` [compound 28], in experiment [1] (setting [4]), the inhibition at 100 µM amounted to 26.7 ± 3.6%.

With `O=[N+]([O-])c1ccc(O[C@@H]2O[C@H](CO)[C@H](O)[C@H](O)[C@H]2O)cc1` [pNPGal, para‐nitrophenyl β‐D‐galactoside, reference compound], the Kd in experiment [3] (25 °C, 20% DMSO, average of three titrations, read-out: KD) is 10.1 µM. For the same compound, in experiment [3] (average of three titrations), the “N (sites)” value is 0.81 ± 0.09 and 0.810; the ΔG was -6.84 ± 0.072 kcal/mol and -6.84 kcal/mol. Also, in experiment [3] (setting [6]), the “-TΔS” value was 5.83 kcal/mol and 4.64 kcal/mol and 5.02 kcal/mol; the “N (sites)” value was 0.722 and 0.801 and 0.908; the ΔG is -28.4 kJ/mol (2×) and -28.9 kJ/mol; the ΔH is -12.6 kcal/mol and -11.5 kcal/mol and -11.8 kcal/mol. Also, the dissociation constant (Kd) in experiment [3] (individual replicate (Repl. 1-3), read-out: KD) was 10.8 µM (2×) and 8.8 µM.

For the compound `CCCCOC(=O)c1cc(O)c(O)c([N+](=O)[O-])c1` [compound 21], the inhibition at 100 µM in experiment [1] (setting [4]) stood at 22.9 ± 1.8%.

As for `O=C(c1cc(O)c(O)c([N+](=O)[O-])c1)N1CCCCC1` [compound 25], in experiment [1] (setting [4]), the inhibition at 100 µM is 5 ± 11.8%.

For `Cc1ccc(C(=O)c2cc(O)c(O)c(C(=O)O)c2)cc1` [compound 9], the inhibition at 100 µM in experiment [1] (setting [4]) worked out at 2.1 ± 2.9%.

`O=C(Nc1ccc(F)cc1)c1cc(O)c(O)c([N+](=O)[O-])c1` [compound 22]: the inhibition at 100 µM in experiment [1] (setting [4]) was 8.7 ± 3.3%.

For `O=C(c1cc(O)c(O)c([N+](=O)[O-])c1)C1CCCCC1` [compound 27], the inhibition at 100 µM in experiment [1] (setting [4]) is 23.4 ± 3.6%.

As to `Cc1ccc(C(=O)c2cc(O)c(O)c(C#N)c2)cc1` [compound 12], in experiment [1] (setting [4]), the inhibition at 100 µM was 20.2 ± 4.8%.

Take `COc1cc(C(=O)c2ccc(C)cc2)cc([N+](=O)[O-])c1OC` [compound 5]: the “Activity [%] (% inhibition relative to 500 µM pNPGal)” value in experiment [1] (compound 125 µM (marked *), 10% DMSO, 250 µM 2-mercaptoethanol, four replicates) is listed as “complete lack of activity”. The inhibition at 125 µM in experiment [1] (setting [4]) was -5.3 ± 7.6%.

Consider `CC(=O)Nc1cc(C(=O)c2ccc(C)cc2)cc(O)c1O` [compound 10], for which the inhibition at 100 µM in experiment [1] (setting [4]) was 20.1 ± 2.8%.

Turning to `Cc1ccc(C(=O)c2cc(O)c(O)c(O)c2)cc1` [compound 7], the inhibition at 100 µM in experiment [1] (setting [4]) is 7.5 ± 4.9%.

Take `Cc1ccc(C(=O)c2cc([N+](=O)[O-])c(O)c(O)c2Cl)cc1` [compound 15]: the inhibition at 100 µM in experiment [1] (setting [4]) was 96.7 ± 4%. Besides, the IC50 worked out at 58 µM in experiment [2] (setting [5]); 67 µM in experiment [2] (IC50 in presence of 0.01% Triton X-100, FP assay, 0.01% Triton X-100, one replicate); 56 µM in experiment [2] (IC50 in presence of 0.057% Triton X-100, FP assay, 0.057% Triton X-100, one replicate). For the same compound, the “N (sites)” value in experiment [3] (average of three titrations) was 0.92 ± 0.05 and 0.922; in experiment [3] (setting [6]), 0.947 and 0.957 and 0.862. The ΔG in experiment [3] (average of three titrations) was -6.74 ± 0.14 kcal/mol and -6.74 kcal/mol; in experiment [3] (setting [6]) it was -6.6 kcal/mol and -6.88 kcal/mol and -6.74 kcal/mol. In addition, the ΔH in experiment [3] (average of three titrations) was -5.45 ± 0.359 kcal/mol and -5.45 kcal/mol; in experiment [3] (setting [6]) it was -5.76 kcal/mol and -5.04 kcal/mol and -5.52 kcal/mol. Further, the “-TΔS” value in experiment [3] (setting [6]) was -0.837 kcal/mol and -1.84 kcal/mol and -1.22 kcal/mol. The equilibrium dissociation constant (Kd) in experiment [3] (KD, 25 °C, 20% DMSO, average of three titrations) is 12 µM; in experiment [3] (KD, individual replicate (Repl. 1-3)), 15.1 µM and 9.3 µM and 11.5 µM.

With `Cc1ccc(C(=O)c2cc(N)c(O)c(O)c2)cc1` [compound 8], the inhibition at 100 µM in experiment [1] (setting [4]) turned out to be 7.9 ± 3.4%.
